What was measured:
Format in all cases: in vivo, human
[1] = tested on: TIE2; experiment: Pharmacodynamics: circulating Ang-2 levels (Part 1); conditions: with exposure to higher doses of rebastinib in combination with paclitaxel; indicating TIE2 inhibition
Source text: (§1) This is an open-label Phase 1b/2 multicenter study in patients with advanced or metastatic solid tumors where paclitaxel may be considered appropriate treatment. Rebastinib will be administered in combination with paclitaxel in repeated 28-day cycles to primarily assess the safety, tolerability and preliminary efficacy of the combination. Adverse events (AEs) will be assessed, and laboratory values, vital sign measurements, electrocardiograms (ECGs), ophthalmologic examinations, physical examinations and Eastern Cooperative Oncology Group (ECOG) Performance Status (PS) will be obtained to evaluate the safety and tolerability of rebastinib when administered in combination with paclitaxel. Pharmacokinetic (PK) and pharmacodynamic (PD) samples will be collected at pre-specified time points.

[2] = tested on: advanced or metastatic solid tumors; experiment: Phase 1b/2 study of rebastinib in combination with paclitaxel (Part 1; overall safety)
Source text: as §1
(§2) The study consists of two parts (Part 1 and Part 2). In Part 1, patients were assigned to one of two pre-defined dose levels of rebastinib (50 or 100 mg BID) in combination with paclitaxel administered by intravenous (IV) infusion at 80 mg/m^2. Paclitaxel is to be administered by IV infusion at 80 mg/m^2 over approximately 60 minutes on Day 1, Day 8 and Day 15 of repeated 28-day cycles. Rebastinib is to be administered orally prior to the paclitaxel infusion.
Each arm was planned to enroll at least 12 evaluable patients. Additionally, if rebastinib at 100 mg BID was deemed unsafe, an additional arm dosing at 75 mg BID of rebastinib in combination with paclitaxel may be initiated. Up to 36 evaluable patients were dosed in Part 1. Safety was continuously monitored, and any arm may be terminated early if deemed unsafe by the Sponsor.
Safety and tolerability, PK and PD, and preliminary efficacy data obtained in Part 1 was used to determine the RP2D. Data for at least 12 evaluable patients through Cycle 1 must be available in an arm to declare the dose as the RP2D. Patients must receive ≥80% of planned doses of rebastinib and paclitaxel in Cycle 1 to be considered as evaluable. Enrollment of patients was paused for determination of the RP2D prior to initiation of Part 2. An RP2D was chosen by the Sponsor in consultation with the Investigators.

[3] = tested on: gynecologic carcinosarcoma; experiment: Phase 1b/2 rebastinib + paclitaxel, Part 2 Cohort 5 (RECIST v1.1); conditions: Cycle 5, Day 1
Source text: Upon determination of the RP2D, Part 2 is initiated to dose up to 165 evaluable patients using the RP2D across five indication-specific cohorts. A Simon's two-stage design is applied to Part 2 to further evaluate the safety, tolerability, and preliminary efficacy of rebastinib in combination with paclitaxel in triple-negative breast (Cohort 1), inflammatory breast (Cohort 2), ovarian (Cohort 3), endometrial adenocarcinoma (Cohort 4), and gynecologic carcinosarcoma (Cohort 5) cancers. Each cohort initially enrolls up to 18 evaluable patients in the first stage. Patients must receive at least 1 dose of the combination and have 1 post-baseline assessment (including assessment of clinical progression) or be discontinued prior to the postbaseline disease assessment due to an AE at least possibly related to rebastinib, to be considered evaluable. Tumor response is assessed according to Response Evaluation Criteria in Solid Tumors (RECIST) Version 1.1. The decision to enroll patients beyond the first stage is based on response assessments obtained after the first post-dose response assessment of the last patient enrolled in the first stage of a cohort. […] If ≤4 responses are seen in a cohort, the cohort will be terminated. If >4 responses are seen prior to the last evaluable patient in the first stage, expanding the cohort may be triggered earlier. […]

[4] = tested on: mesothelioma; experiment: Phase 1b/2 rebastinib + paclitaxel, Part 1 patient with mesothelioma; conditions: one patient; 50 mg BID rebastinib + paclitaxel 80 mg/m^2, reduced at Cycle 4 to 25 mg BID + 60 mg/m^2; two prior lines carboplatin and alimta; Cycle 8, Day 1
Protocol: as §2
Part 1 included treatment of a patient with mesothelioma with 50 mg BID rebastinib and paclitaxel at 80 mg/m^2. The patient had two prior lines of treatment with carboplatin and alimta.

[5] = tested on: endometrial adenocarcinoma; experiment: Phase 1b/2 rebastinib + paclitaxel, Part 2 Cohort 4 (RECIST v1.1)
Source text: Upon determination of the RP2D, Part 2 is initiated to dose up to 165 evaluable patients using the RP2D across five indication-specific cohorts. A Simon's two-stage design is applied to Part 2 to further evaluate the safety, tolerability, and preliminary efficacy of rebastinib in combination with paclitaxel in triple-negative breast (Cohort 1), inflammatory breast (Cohort 2), ovarian (Cohort 3), endometrial adenocarcinoma (Cohort 4), and gynecologic carcinosarcoma (Cohort 5) cancers. Each cohort initially enrolls up to 18 evaluable patients in the first stage. Patients must receive at least 1 dose of the combination and have 1 post-baseline assessment (including assessment of clinical progression) or be discontinued prior to the postbaseline disease assessment due to an AE at least possibly related to rebastinib, to be considered evaluable. Tumor response is assessed according to Response Evaluation Criteria in Solid Tumors (RECIST) Version 1.1. The decision to enroll patients beyond the first stage is based on response assessments obtained after the first post-dose response assessment of the last patient enrolled in the first stage of a cohort. […] If ≤4 responses are seen in a cohort, the cohort will be terminated. If >4 responses are seen prior to the last evaluable patient in the first stage, expanding the cohort may be triggered earlier. Enrollment in each cohort will pause between the first and second stage of the Simon two-stage for evaluation of response. Patients will receive study treatment until they develop progressive disease, experience unacceptable toxicity, or withdraw consent.
21 patients were enrolled and completed at least Cycle 1, Day 1 (C1D1); 18 of which had post baseline measurements. 16 of the patients treated with rebastinib were at a starting dose of 100 mg BID and 80 mg/m^2 weekly paclitaxel, of which the doses of 11 were reduced to 50 mg BID and 80 mg/m^2 weekly paclitaxel, and 5 patients were at a starting dose of 50 mg BID and 80 mg/m^2 weekly paclitaxel. Of the 21 patients who completed at least Cycle 1, Day 1, the median age was 66 years, all received at least 1 prior line of paclitaxel/carboplatin, and 20 (95%) received at least 2 prior anti-cancer therapies. Of the 21 patients who completed at least Cycle 1, Day 1, the median duration of treatment was 16 weeks. Of the 21 patients, 18 were determined to be efficacy evaluable patients (mITT).
At a third time point, 38 patients with endometrial cancer were enrolled in this portion of the study as a safety population. 16 of the patients treated with rebastinib were at a starting dose of 100 mg BID and 80 mg/m^2 weekly paclitaxel, of which the doses of 11 were reduced to 50 mg BID and 80 mg/m^2 weekly paclitaxel, and 22 patients were at a starting dose of 50 mg BID and 80 mg/m^2 weekly paclitaxel. 33 of the 38 patients met the met the modified intention-to-treat (mITT) criteria.

[6] = Cohort 4, time point 1, of the eight with stable disease at Cycle 3, Day 1, Cycle 5, Day 1
[7] = Cohort 4, time point 1, rebastinib + paclitaxel, Cycle 3, Day 1
[8] = Cohort 4, time point 2, 18 evaluable patients (mITT)
[9] = Cohort 4, time point 3, of 3 patients who had received Lenvatinib/pembrolizumab
[10] = Cohort 4, time point 4, 33 evaluable patients
[11] = Table 2, Cohort 4, time point 3, mITT N = 33, patients (%)
[12] = Table 2, Cohort 4, time point 3, n 11

## CNC(=O)c1cc(Oc2ccc(NC(=O)Nc3cc(C(C)(C)C)nn3-c3ccc4ncccc4c3)c(F)c2)ccn1 [rebastinib]
[1]
  Mean circulating Ang-2 levels: increased
[2]; Part 1, rebastinib 50 mg BID with weekly paclitaxel 80 mg/m^2
  Partial response, patients: 5 patients
[2]; Part 1, rebastinib 100 mg BID with weekly paclitaxel 80 mg/m^2
  Partial response, patients: 3 patients
[2]; Part 1, rebastinib 50 and 100 mg BID with weekly paclitaxel 80 mg/m^2
  Partial response, patients total: 8 patients
[2]; Part 1, rebastinib 50 and 100 mg BID with weekly paclitaxel 80 mg/m^2, patients with advanced tumors
  Tolerability: generally well tolerated
[2]; rebastinib 100 mg BID with weekly paclitaxel 80 mg/m^2, required dose reduction to 50 mg BID
  Muscular weakness: high incidence
[3]
  Patients with partial response: one
[4]
  Tumor response: partial response
[5]; Cohort 4, time point 1, of the eight with stable disease at Cycle 3, Day 1
  Patients with stable disease at Cycle 5, Day 1 and partial response at Cycle 8, Day 1: one
[5]; [6]
  Patients with partial response: one
  Patients with stable disease: four
[5]; Cohort 4, time point 1, of the four with partial response at Cycle 3, Day 1, Cycle 5, Day 1
  Patients with partial response: two
[5]; Cohort 4, time point 1, of the four with partial response at Cycle 3, Day 1, both Cycle 5, Day 1 and Cycle 8, Day 1
  Patients with partial response: two
[5]; [7]
  Patients with partial response: four
  Patients with stable disease: Eight
[5]; [8]
  CBR at 8 weeks: 72%
  ORR: 39%
  Stable disease (SD) determinations: 6
[5]; Cohort 4, time point 2, 18 evaluable patients (mITT), rebastinib 100 or 50 mg BID with weekly paclitaxel 80 mg/m^2
  Partial response (PR) determinations: 7
[5]; Cohort 4, time point 3, 33 patients mITT
  Clinical benefit rate at 16 weeks: 53%
[5]; Cohort 4, time point 3, 33 patients mITT, rebastinib 100 or 50 mg BID with weekly paclitaxel 80 mg/m^2
  Objective response rate (ORR): 33%
[5]; Cohort 4, time point 3, FIG. 7, subgroups by age, number of prior regimens, number of prior paclitaxel regimens, histology
  ORR across subgroups: consistent
[5]; [9]
  Patients with partial response: 2
  Patients with stable disease: 1
[5]; Cohort 4, time point 4
  Outcome of serious adverse events related (or possibly) to rebastinib: resolved after dose interruption
[5]; [10]
  Clinical benefit at 8 weeks: 70%
  Clinical benefit at 16 weeks: 54%
  Confirmed PRs: 8
  PRs: 11
[5]; Cohort 4, time point 4, 33 evaluable patients, rebastinib 100 or 50 mg BID with weekly paclitaxel 80 mg/m^2
  ORR: 33%
[5]; Cohort 4, time point 4, 90% CI: 2.7, NE, median follow up 4.4 months
  KM median duration of response: 7.4 months
[5]; Cohort 4, time point 4, 90% CI: 3.7, 9.4
  Median PFS: 6.2 months
[5]; [11]
  Best Overall Response: Confirmed Partial Response: 8 (24.2%)
  Best Overall Response: Not Evaluable: discontinued prior to radiological assessment: 5 (15.2%)
  Best Overall Response: Partial Response: 11 (33.3%)
  Best Overall Response: Progressive Disease: 6 (18.2%)
  Best Overall Response: Single Response Awaiting Confirmation: 1 (3.0%)
  Best Overall Response: Stable Disease: 11 (33.3%)
  Best Overall Response: Unconfirmed Single Response: 2 (6.1%)
[5]; [12]
  Duration of Response, Events (%): 3 (27.3)
  Time to Response, Mean (SD): 3.3 (1.7)
[5]; Table 2, Cohort 4, time point 3, n 11, NE: Not evaluated
  Duration of Response, Kaplan-Meier Median (80% CI): 7.4 (7.4, NE)

From US20210275518A1, “METHODS OF USING REBASTINIB IN THE TREATMENT OF DISORDERS” (Deciphera Pharmaceuticals, LLC, priority 2020, published 2021)
